Among the data in patent US12084473B2, “β-D-2′-deoxy-2′-α-fluoro-2′-β-C-substituted-2-modified-N6-substituted purine nucleotides for HCV treatment” (Atea Pharmaceuticals, Inc., priority 2015, dated 2024) are EC95, EC50 and CC50 values, retold here.

The subject of data set [1] is HCV genotype 1b luciferase reporter replicon. The experiment in a line: microbe, parasite or virus in culture. The format is cell-based. To be noted: Hepatitis C virus; Huh-7 luc/neo ET cells, 72 hours, luciferase; read-out: HCV Replicon EC50/EC95: EC95. How it is done: (§1) The plates were cultured for 24 hours prior to the addition of compounds. Six serial one half log dilutions of the test articles (high test concentration of 100.0 μM or high test concentration of 1.0 μM) and human interferon-alpha2b (high test 10.0 U/ml) were prepared in cell culture medium and added to the cultured cells in triplicate wells for each dilution. Six wells in the test plates received medium alone as an untreated control. Following 72 hours of culture in the presence of compound, one of the plates was used for the determination of cytotoxicity by staining with XTT and the other for antiviral efficacy by determination of luciferase reporter activity. Cytotoxicity and efficacy data were collected and imported into a customized Excel workbook for determination of the TC50 and EC50 values. […] The y-axis is the percent of virus control and the x-axis is the concentration of drug in μM. […] The y-axis is the percent of virus control and the x-axis is the concentration of drug in M.
(In general: Replicon systems follow genome replication, usually without infectious particles.)

For data set [2] the test system is unchanged. The experiment in a line: microbe, parasite or virus in culture. The format is cell-based. To be noted: Hepatitis C virus, HuH-7-Luc/Neo-ET, 72 h, read-out: HCV Replicon EC50/EC95: EC50.
Data set [3] can be described thus: Cytotoxicity by XTT staining in replicon cells. To be noted: human. How it is done:
as §1

Molecules are shown by their SMILES.

As a reminder, the CC50 is the concentration giving 50% cytotoxicity. Consider `CCN(C)c1nc(N)nc2c1ncn2[C@@H]1OC(COP(=O)(N[C@@H](C)C(=O)OC(C)C)Oc2ccccc2)[C@@H](O)[C@@]1(C)F` (stereo partly drawn) [Compound 18, isopropyl ((((R,S)-(2R,3R,4R,5R)-5-(2-amino-6-(N-methyl-ethylamino)-9H-purin-9-yl)-4-fluoro-3-hydroxy-4-methyltetrahydrofuran-2-yl)methoxy)-phenoxy-phosphoryl)-L-alaninate], for which the EC95 in data set [1] was 219 nM. In data set [2], the EC50 is 48 nM. This compound yielded a CC50 at 72 h in data set [3] of 90000 nM.
Taken in the same sequence, the figures for `CCCN(C)c1nc(N)nc2c1ncn2[C@@H]1OC(COP(=O)(N[C@@H](C)C(=O)OC(C)C)Oc2ccccc2)[C@@H](O)[C@@]1(C)F` (stereo partly drawn) [Compound 20, isopropyl ((((R,S)-(2R,3R,4R,5R)-5-(2-amino-6-(N-methyl-propylamino)-9H-purin-9-yl)-4-fluoro-3-hydroxy-4-methyltetrahydrofuran-2-yl)methoxy)-phenoxy-phosphoryl)-L-alaninate] were 315 nM, 73 nM and more than 100000 nM.
In the case of `CC(C)OC(=O)[C@H](C)N[P@@](=O)(OCC1O[C@@H](n2cnc3c(N(C)C)nc(N)nc32)[C@](C)(F)[C@@H]1O)Oc1ccccc1` (stereo partly drawn) [Compound 26, isopropyl ((((R)-(2R,3R,4R,5R)-5-(2-amino-6-(dimethylamino)-9H-purin-9-yl)-4-fluoro-3-hydroxy-4-methyltetrahydrofuran-2-yl)methoxy)-phenoxy-phosphoryl)-L-alaninate], the EC95 in data set [1] was 57 nM. In addition, the EC50 in data set [2] was 35.1 nM. Further, the CC50 at 72 h in data set [3] is more than 100000 nM.
On the same counts, the results for `CC(C)OC(=O)[C@H](C)N[P@@](=O)(OCC1O[C@@H](n2cnc3c(N(C)C4CC4)nc(N)nc32)[C@](C)(F)[C@@H]1O)Oc1ccccc1` (stereo partly drawn) [Compound 28, isopropyl ((((R)-(2R,3R,4R,5R)-5-(2-amino-6-(methylcyclopropanamino)-9H-purin-9-yl)-4-fluoro-3-hydroxy-4-methyltetrahydrofuran-2-yl)methoxy)-phenoxy-phosphoryl)-L-alaninate] are 76 nM, 14 nM and more than 100000 nM.
Consider `C#C[C@@]1(F)[C@H](O)[C@@H](CO)O[C@H]1n1cnc2c(N(C)C)nc(N)nc21` [Compound 41], for which the EC95 in data set [1] is 25100 nM. In data set [2], the EC50 is 508 nM. The compound further had a 50% cytotoxic concentration (CC50) at 72 h in data set [3] of 21800 nM.
On the same counts, the results for `C#C[C@@]1(F)[C@H](O)[C@@H](CO)O[C@H]1n1cnc2c(NC)nc(N)nc21` [Compound 42] are 20400 nM, 4180 nM and more than 100000 nM.
On the same counts, the results for `C#C[C@@]1(F)[C@H](O)[C@@H](CO)O[C@H]1n1cnc2c(N(C)C3CC3)nc(N)nc21` [Compound 43] are 24700 nM, 6430 nM and 21600 nM.
Taken in the same sequence, the figures for `C#C[C@@]1(F)[C@H](O)C(COP(=O)(N[C@@H](C)C(=O)OC(C)C)Oc2ccccc2)O[C@H]1n1cnc2c(N(C)C)nc(N)nc21` (stereo partly drawn) [Compound 45, isopropyl ((((R,S)-(2R,3R,4R,5R)-5-(2-amino-6-dimethylamino-9H-purin-9-yl)-4-fluoro-3-hydroxy-4-ethynyltetrahydrofuran-2-yl)methoxy)-phenoxy-phosphoryl)-L-alaninate] were 876 nM, 160 nM and 680 nM.
`C#C[C@@]1(F)[C@H](O)C(COP(=O)(N[C@@H](C)C(=O)OC(C)C)Oc2ccccc2)O[C@H]1n1cnc2c(NC)nc(N)nc21` (stereo partly drawn) [Compound 46, isopropyl ((((R,S)-(2R,3R,4R,5R)-5-(2-amino-6-methylamino-9H-purin-9-yl)-4-fluoro-3-hydroxy-4-ethynyltetrahydrofuran-2-yl)methoxy)-phenoxy-phosphoryl)-L-alaninate]: in data set [1], the EC95 turned out to be 961 nM. Moreover, the EC50 in data set [2] was found to be 224 nM. Further, the CC50 at 72 h in data set [3] is more than 100000 nM.
On the same counts, the results for `C#C[C@@]1(F)[C@H](O)C(COP(=O)(N[C@@H](C)C(=O)OC(C)C)Oc2ccccc2)O[C@H]1n1cnc2c(N(C)C3CC3)nc(N)nc21` (stereo partly drawn) [Compound 47, isopropyl ((((R,S)-(2R,3R,4R,5R)-5-(2-amino-6-(N-methylcyclopropylamino)-9H-purin-9-yl)-4-fluoro-3-hydroxy-4-ethynyltetrahydrofuran-2-yl)methoxy)-phenoxy-phosphoryl)-L-alaninate] are 1720 nM, 338 nM and 1680 nM.
